# Measurements published in patent publication US5847107A, “Method of preparing mixed glucosamine salts” (Rotta Research B.V. Amsterdam (Swiss Branch), priority 1996, dated 1998).
# Legend:
# [1] = cited from earlier work
# [2] = pH of a saturated aqueous solution at 20° C.; type: physicochemical
# [3] = Partition coefficient in phosphate buffer (pH 6.8)/n-octanol at 25° C.; type: physicochemical
# [4] = Solubility (25° C. - w/v); type: physicochemical; conditions: for Solubility in acetone, acetonitrile, tetrahydrofuran, dioxane: practically insoluble; for Solubility in methanol: slightly soluble; for Solubility in ethanol: very slightly soluble; for Solubility in water: very soluble
# [5] = Stability at 40° C. and 85% R.H. (appearance, titre); type: physicochemical
# [6] = Stability at 25° C. and 60% R.H. (appearance, titre); type: physicochemical
# [7] = 0 months, (*): Crystalline powder of pale cream colour
# [8] = 18 months (after slight yellowing at 12 months)
# [9] = 24 months (after slight yellowing at 12 months)
smiles,measurement,setting,value
"Cl.N[C@H]1C(O)O[C@H](CO)[C@@H](O)[C@@H]1O (some centres unmarked) [glucosamine hydrochloride, reference compound]",Stability on storage,"[1]; no particular precautions in time, temperature or humidity",stable
Cl.N[C@H]1C(O)O[C@H](CO)[C@@H](O)[C@@H]1O.O=S(=O)([O-])[O-].[Mg+2] (some centres unmarked) [Example 8],pH of a saturated aqueous solution,[2],3 +/-0.2
same,Partition coefficient,[3],practically infinite
same,"Solubility in benzene, chloroform, carbon tetrachloride, methylene chloride, ligroin, ethyl ether",[4],Insoluble
same,"Solubility in acetone, acetonitrile, tetrahydrofuran, dioxane",[4],< 0.01 % (w/v)
same,Solubility in methanol,[4],about 1 % (w/v)
same,Solubility in ethanol,[4],about 0.03 % (w/v)
same,Solubility in water,[4],about 40 % (w/v)
same,Titre,[5]; 0 months,100.5%
same,Appearance,[5]; [7],conforms
same,Appearance,[5]; 3 months,unchanged
same,Titre,"[5]; 3 months, 129600 min",100.6%
same,Appearance,[5]; 6 months,unchanged
same,Titre,"[5]; 6 months, 259200 min",100.1%
same,Appearance,[5]; 9 months,unchanged
same,Titre,"[5]; 9 months, 388800 min",100.2%
same,Titre,"[5]; 12 months, 518400 min",97.4%
same,Appearance,[5]; [8],unchanged
same,Titre,"[5]; 18 months, 777600 min",97.7%
same,Appearance,[5]; [9],unchanged
same,Titre,"[5]; 24 months, 1.0368e+06 min",97.3%
same,Titre,[6]; 0 months,100.5%
same,Appearance,[6]; [7],conforms
same,Appearance,[6]; 3 months,unchanged
same,Titre,"[6]; 3 months, 131400 min",100.1%
same,Appearance,[6]; 6 months,unchanged
same,Titre,"[6]; 6 months, 262800 min",99.8%
same,Appearance,[6]; 9 months,unchanged
same,Titre,"[6]; 9 months, 394200 min",100.3%
same,Appearance,[6]; 12 months,unchanged
same,Titre,"[6]; 12 months, 525600 min",100.6%
"N[C@H]1C(O)O[C@H](CO)[C@@H](O)[C@@H]1O.O=S(=O)(O)O (some centres unmarked) [glucosamine sulphate, reference compound]",Hygroscopicity,[1]; background statement,highly hygroscopic
Cl.N[C@H]1C(O)O[C@H](CO)[C@@H](O)[C@@H]1O.O=S(=O)([O-])[O-].[K+].[K+] (some centres unmarked) [Example 6],pH of a saturated aqueous solution,[2],3 +/-0.2
same,Partition coefficient,[3],practically infinite
same,"Solubility in benzene, chloroform, carbon tetrachloride, methylene chloride, ligroin, ethyl ether",[4],Insoluble
same,"Solubility in acetone, acetonitrile, tetrahydrofuran, dioxane",[4],< 0.01 % (w/v)
same,Solubility in methanol,[4],about 1 % (w/v)
same,Solubility in ethanol,[4],about 0.03 % (w/v)
same,Solubility in water,[4],about 40 % (w/v)
same,Titre,[5]; 0 months,100.1%
same,Appearance,[5]; [7],conforms
same,Appearance,[5]; 3 months,unchanged
same,Titre,"[5]; 3 months, 129600 min",100.3%
same,Appearance,[5]; 6 months,unchanged
same,Titre,"[5]; 6 months, 259200 min",99.8%
same,Appearance,[5]; 9 months,unchanged
same,Titre,"[5]; 9 months, 388800 min",100.0%
same,Titre,"[5]; 12 months, 518400 min",95.7%
same,Appearance,[5]; [8],unchanged
same,Titre,"[5]; 18 months, 777600 min",96.2%
same,Appearance,[5]; [9],unchanged
same,Titre,"[5]; 24 months, 1.0368e+06 min",95.5%
same,Titre,[6]; 0 months,100.1%
same,Appearance,[6]; [7],conforms
same,Appearance,[6]; 3 months,unchanged
same,Titre,"[6]; 3 months, 131400 min",100.3%
same,Appearance,[6]; 6 months,unchanged
same,Titre,"[6]; 6 months, 262800 min",99.8%
same,Appearance,[6]; 9 months,unchanged
same,Titre,"[6]; 9 months, 394200 min",99.6%
same,Appearance,[6]; 12 months,unchanged
same,Titre,"[6]; 12 months, 525600 min",100.3%
